Reference: patent publication US6358885B1, “Substituted phenylheterocyclic herbicides” (Mississippi State University, priority 1992, dated 2002)

What was measured:
[1] = test system: cheatgrass; assay: Test B preemergence/postemergence greenhouse plant response rating 0 to 10; assay type: in vivo, Bromus secalinus; conditions: 0 to 10 scale
Method in brief: (§1)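 Both application timings were run together: seeds got compound preemergence, and established seedlings (two to eighteen cm) got it postemergence. Non-phytotoxic solvent carried the chemical. Ratings are visual, versus controls, at twelve to sixteen days.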

[2] = test system: corn; assay: as above; assay type: in vivo, Zea mays; conditions: 0 to 10 scale
Method in brief: as §1

[3] = test system: cotton; assay: as above; assay type: in vivo, Gossypium hirsutum; conditions: 0 to 10 scale
Method in brief: as §1

[4] = test system: lambsquarters; assay: as above; assay type: in vivo, Chenopodium album; conditions: 0 to 10 scale
Method in brief: as §1

[5] = test system: rice; assay: as above; assay type: in vivo, Oryza sativa; conditions: 0 to 10 scale
Method in brief: as §1

[6] = test system: wheat; assay: as above; assay type: in vivo, Triticum aestivum; conditions: 0 to 10 scale
Method in brief: as §1

[7] = test system: wild oat; assay: as above; assay type: in vivo, Avena fatua; conditions: 0 to 10 scale
Method in brief: as §1

[8] = test system: bedstraw; assay: Test C preemergence/postemergence greenhouse plant response rating 0 to 100; assay type: in vivo, Galium aparine; conditions: POSTEMERGENCE
Description: (§2) The compounds evaluated in this test were formulated in a non-phytoxic solvent and applied to the soil surface before plant seedlings emerged (preemergence application), to water that covered the soil surface (flood application), and to plants that were in the one-to-four leaf stage (postemergence application). A sandy loam soil was used for the preemergence and postemergence tests, while a silt loam soil was used in the flood test. Water depth was approximately 2.5 cm for the flood test and was maintained at this level for the duration of the test. Plant species in the preemergence and postemergence tests consisted of barley (Hordeum vulgare), bedstraw (Galium aparine), blackgrass (Alopecurus myosuroides), chickweed (Stellaria media), corn (Zea mays), cotton (Gossypium hirsutum), crabgrass (Digitaria sanguinalis), downy brome (Bromus tectorum), giant foxtail (Setaria faberii), lambsquarters (Chenopodium album), morningglory (Ipomoea hederacea), pigweed ([…]), rape (Brassica napus), ryegrass (Lolium multiflorum), sorghum (Sorghum bicolor), soybean (Glycine max), speedwell (Veronica persica), sugar beet (Beta vulgaris), velvetleaf (Abutilon theophrasti), wheat (Triticum aestivum), wild buckwheat (Polygonum convolvulus), and wild oat (Avena fatua). All plant species were planted one day before application of the compound for the preemergence portion-of this test. Plantings of these species were adjusted to produce plants of appropriate size for the post-emergence portion of the test. […] All plant species were grown using normal greenhouse practices. Visual evaluations of injury expressed on treated plants, when compared to untreated controls, were recorded approximately fourteen to twenty one days after application of the test compound. […] A dash (-) response means no test result.

[9] = test system: cotton; assay: as above; assay type: in vivo, Gossypium hirsutum; conditions: POSTEMERGENCE
Description: as §2

[10] = test system: crabgrass; assay: as above; assay type: in vivo, Digitaria sanguinalis; conditions: POSTEMERGENCE
Description: as §2

[11] = test system: downy brome; assay: as above; assay type: in vivo, Bromus tectorum; conditions: POSTEMERGENCE
Description: as §2

[12] = test system: giant foxtail; assay: as above; assay type: in vivo, Setaria faberii; conditions: POSTEMERGENCE
Description: as §2

[13] = test system: lambsquarters; assay: as above; assay type: in vivo, Chenopodium album; conditions: POSTEMERGENCE
Description: as §2

[14] = test system: sorghum; assay: as above; assay type: in vivo, Sorghum bicolor; conditions: POSTEMERGENCE
Description: as §2

[15] = test system: sugar beet; assay: as above; assay type: in vivo, Beta vulgaris; conditions: POSTEMERGENCE
Description: as §2

[16] = test system: velvetleaf; assay: as above; assay type: in vivo, Abutilon theophrasti; conditions: POSTEMERGENCE
Description: as §2

[17] = test system: duck salad; assay: Test C flood test plant response rating 0 to 100; assay type: in vivo, Heteranthera limosa
Description: as §2

[18] = test system: barnyardgrass; assay: Test C flood test plant response rating 0 to 100; assay type: in vivo, Echinochloa crus-galli
Description: as §2

[19] = POSTEMERGENCE section, flood test, Rate 1 g/ha
[20] = Rate 16 g/ha, under POSTEMERGENCE head (flood test species)
[21] = flood test species listed under POSTEMERGENCE, 62 g/ha, 0 to 100 scale

C#CCN1C(=O)COc2cc(F)c(-c3nn4c(c3Cl)CCCC4)cc21 [Compound 34]
Plant response rating, Cheatgrass ([1]; POSTEMERGENCE, Rate 10 g/ha): 4
Plant response rating, Cheatgrass ([1]; POSTEMERGENCE, Rate 50 g/ha): 5
Plant response rating, Cheatgrass ([1]; PREEMERGENCE, Rate 10 g/ha): 3
Plant response rating, Cheatgrass ([1]; PREEMERGENCE, Rate 50 g/ha): 6
Plant response rating, Corn ([2]; POSTEMERGENCE, Rate 10 g/ha): 4
Plant response rating, Corn ([2]; POSTEMERGENCE, Rate 50 g/ha): 4
Plant response rating, Corn ([2]; PREEMERGENCE, Rate 50 g/ha): 0
Plant response rating, Cotton ([3]; POSTEMERGENCE, Rate 10 g/ha): 10
Plant response rating, Cotton ([3]; POSTEMERGENCE, Rate 50 g/ha): 10
Plant response rating, Cotton ([3]; PREEMERGENCE, Rate 10 g/ha): 0
Plant response rating, Cotton ([3]; PREEMERGENCE, Rate 50 g/ha): 0
Plant response rating, Lambsquarter ([4]; POSTEMERGENCE, Rate 10 g/ha): 9
Plant response rating, Lambsquarter ([4]; POSTEMERGENCE, Rate 50 g/ha): 10
Plant response rating, Lambsquarter ([4]; PREEMERGENCE, Rate 50 g/ha): 10
Plant response rating, Rice ([5]; POSTEMERGENCE, Rate 10 g/ha): 5
Plant response rating, Rice ([5]; POSTEMERGENCE, Rate 50 g/ha): 5
Plant response rating, Rice ([5]; PREEMERGENCE, Rate 50 g/ha): 2
Plant response rating, Wheat ([6]; POSTEMERGENCE, Rate 10 g/ha): 5
Plant response rating, Wheat ([6]; POSTEMERGENCE, Rate 50 g/ha): 5
Plant response rating, Wheat ([6]; PREEMERGENCE, Rate 50 g/ha): 3
Plant response rating, Wild oat ([7]; POSTEMERGENCE, Rate 10 g/ha): 5
Plant response rating, Wild oat ([7]; POSTEMERGENCE, Rate 50 g/ha): 5
Plant response rating, Wild oat ([7]; PREEMERGENCE, Rate 50 g/ha): 7
Plant response rating, Bedstraw ([8]; 62 g/ha, 0 to 100 scale): 100
Plant response rating (0 to 100), Bedstraw ([8]; Rate 1 g/ha): 30
Plant response rating (0 to 100), Bedstraw ([8]; Rate 4 g/ha): 95
Plant response rating (0 to 100), Bedstraw ([8]; Rate 16 g/ha): 100
Plant response rating, Cotton ([9]; 62 g/ha, 0 to 100 scale): 100
Plant response rating (0 to 100), Cotton ([9]; Rate 1 g/ha): 100
Plant response rating (0 to 100), Cotton ([9]; Rate 4 g/ha): 100
Plant response rating (0 to 100), Cotton ([9]; Rate 16 g/ha): 100
Plant response rating, Crabgrass ([10]; 62 g/ha, 0 to 100 scale): 60
Plant response rating (0 to 100), Crabgrass ([10]; Rate 1 g/ha): 10
Plant response rating (0 to 100), Crabgrass ([10]; Rate 4 g/ha): 20
Plant response rating (0 to 100), Crabgrass ([10]; Rate 16 g/ha): 30
Plant response rating Downy Brome ([11]; 62 g/ha, 0 to 100 scale): 50
Plant response rating (0 to 100), Downy Brome ([11]; Rate 1 g/ha): 20
Plant response rating (0 to 100), Downy Brome ([11]; Rate 4 g/ha): 30
Plant response rating (0 to 100), Downy Brome ([11]; Rate 16 g/ha): 40
Plant response rating, Giant foxtail ([12]; 62 g/ha, 0 to 100 scale): 70
Plant response rating (0 to 100), Giant foxtail ([12]; Rate 1 g/ha): 20
Plant response rating (0 to 100), Giant foxtail ([12]; Rate 4 g/ha): 30
Plant response rating (0 to 100), Giant foxtail ([12]; Rate 16 g/ha): 40
Plant response rating Lambsquarters ([13]; 62 g/ha, 0 to 100 scale): 100
Plant response rating (0 to 100), Lambsquarters ([13]; Rate 1 g/ha): 80
Plant response rating (0 to 100), Lambsquarters ([13]; Rate 4 g/ha): 100
Plant response rating (0 to 100), Lambsquarters ([13]; Rate 16 g/ha): 100
Plant response rating, Sorghum ([14]; 62 g/ha, 0 to 100 scale): 70
Plant response rating (0 to 100), Sorghum ([14]; Rate 1 g/ha): 30
Plant response rating (0 to 100), Sorghum ([14]; Rate 4 g/ha): 40
Plant response rating (0 to 100), Sorghum ([14]; Rate 16 g/ha): 50
Plant response rating, Sugar beet ([15]; 62 g/ha, 0 to 100 scale): 100
Plant response rating (0 to 100), Sugar beet ([15]; Rate 4 g/ha): 80
Plant response rating (0 to 100), Sugar beet ([15]; Rate 16 g/ha): 100
Plant response rating, Velvetleaf ([16]; 62 g/ha, 0 to 100 scale): 100
Plant response rating (0 to 100), Velvetleaf ([16]; Rate 1 g/ha): 100
Plant response rating (0 to 100), Velvetleaf ([16]; Rate 4 g/ha): 100
Plant response rating (0 to 100), Velvetleaf ([16]; Rate 16 g/ha): 100
Plant response rating (0 to 100), Duck salad [17, 19]: 0
Plant response rating (0 to 100), Duck salad ([17]; POSTEMERGENCE section, flood test, Rate 4 g/ha): 0
Plant response rating (0 to 100), Duck salad [17, 20]: 0
Plant response rating Duck salad [17, 21]: 40
Plant response rating (0 to 100), Barnyardgrass [18, 19]: 60
Plant response rating (0 to 100), Barnyardgrass ([18]; Rate 4 g/ha, under POSTEMERGENCE head (flood test species)): 75
Plant response rating (0 to 100), Barnyardgrass [18, 20]: 95
Plant response rating, Barnyardgrass [18, 21]: 100
